Assay results published in patent US20230219925A1, “BENZO FIVE-MEMBERED NITROGEN HETEROCYCLIC COMPOUND AND APPLICATION THEREOF” (GUANGZHOU INSTITUTES OF BIOMEDICINE AND HEALTH CHINESE …, priority 2020, published 2023).
Where two headings read alike, the source gives them in different places. Values belong to the compound of their own block, whether it stands above or below them.

Key:
[1] = Pharmacokinetic evaluations in SD rats; type: in vivo; settings: Sprague-Dawley, rat, plasma
Procedure: Experimental materials: the pharmacokinetic analyses were carried out by Shanghai Medicilon Corporation. Sprague-Dawley (SD) rats were provided by Shanghai Super-B&K Laboratory Animal Corp., Ltd.
The stock solution was orally administered to three SD rats at a dose of 25 mg/kg and administered to three SD rats through intravenous injection at a single dose of 5 mg/kg. Blood was collected from jugular veins before the oral administration and 0.25, 0.5, 1, 2, 4, 6, 8 and 24 hours after the oral administration. Blood was collected from jugular veins before the intravenous injection and 0.083, 0.25, 0.5, 1, 2, 4, 6, 8 and 24 hours after the intravenous injection. About 200 μL of the blood samples were collected into heparinized tubes and then immediately centrifuged at 8000 r/min for 6 minutes to obtain blood plasma. The obtained blood plasma was storaged at −80° C. until analysis.

[2] = test system: LNCaP; test: Cell viability (Cell-Titer GLO), LNCaP
Procedure: (§1) Experimental method: 20 μL of a medium containing 500 to 1000 cells to be detected (the actual number of cells was related to cell cycle and cell volume) was plated into each well of the 384-well clear-bottom microplate. […] An inhibition curve was fitted by GraphPad Prism software, and IC50 was calculated.

[3] = test system: C4-2B; test: Cell viability (Cell-Titer GLO), C4-2B; settings: read-out: Cell Viability IC50 C4-2B
Procedure: as §1

[4] = test system: 22Rv1; test: Cell viability (Cell-Titer GLO), 22Rv1
Procedure: as §1

[5] = biological target: T1, hRORγ (Homo sapiens, UniProt P51449); test: protein thermal stability shift assay (TSA)
T1 sequence (P51449 1-518): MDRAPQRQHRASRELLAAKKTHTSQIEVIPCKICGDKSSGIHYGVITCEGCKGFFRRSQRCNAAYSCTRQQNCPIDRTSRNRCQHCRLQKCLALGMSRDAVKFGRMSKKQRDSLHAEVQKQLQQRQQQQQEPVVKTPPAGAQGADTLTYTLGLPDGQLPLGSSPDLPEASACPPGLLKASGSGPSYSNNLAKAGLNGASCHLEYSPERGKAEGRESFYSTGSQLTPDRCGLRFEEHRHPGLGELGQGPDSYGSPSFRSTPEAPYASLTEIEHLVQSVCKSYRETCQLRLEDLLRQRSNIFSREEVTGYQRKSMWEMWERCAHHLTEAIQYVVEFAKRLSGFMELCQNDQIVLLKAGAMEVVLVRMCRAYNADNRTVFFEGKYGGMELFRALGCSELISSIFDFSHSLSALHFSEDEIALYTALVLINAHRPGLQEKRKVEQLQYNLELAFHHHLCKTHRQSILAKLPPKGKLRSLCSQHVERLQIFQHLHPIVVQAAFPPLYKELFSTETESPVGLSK

[6] = biological target: T2, RORγ (Homo sapiens, UniProt P51449); test: luciferase dual reporter gene assay, Gal4-RORγLBD in 293T cells
T2 sequence (P51449 269-508 limits assumed): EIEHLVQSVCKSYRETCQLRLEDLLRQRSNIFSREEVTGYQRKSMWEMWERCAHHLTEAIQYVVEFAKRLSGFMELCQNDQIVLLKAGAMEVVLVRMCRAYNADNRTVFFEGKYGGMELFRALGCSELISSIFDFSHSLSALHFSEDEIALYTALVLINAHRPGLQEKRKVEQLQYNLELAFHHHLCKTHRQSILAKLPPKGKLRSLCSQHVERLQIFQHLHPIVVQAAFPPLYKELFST
Procedure: On the day before transfection, cells were prepared in the 96-well plate with a cell density of 1.5×10^4 cells/well. After 24 hours of adherent growth, transient transfection was performed with the transfection reagent Lipo-fectamine 2000 through a method of dual reporter gene co-transfection. The transfection reagent and the plasmids were separately diluted with the Opti-MEM Reagent. Gal4-RORγLBD (25 ng), pG5-luc genes (25 ng) and Renilla (5 ng) were added to each well, and after 24 hours of co-transfection, compounds having different concentrations were added. After 24 hours of incubation, the luciferase dual reporter gene detection assay kit was used for detecting luminescence signals. Three duplicate wells were set for each sample, and IC50 values (half maximal inhibitory concentrations) were calculated by software.

[7] = test system: 22Rv1 xenograft; settings: for TGI: five days a week for three weeks
Procedure: Experimental purpose: a xenograft mouse experiment was used for verifying inhibitory effects of the compounds of the present application on tumors in vivo.
Experimental methods: three-week-old male mice (strain: NOD/MrkBomTac-Prkdc^scid) were purchased from Beijing Vital River Laboratory Animal Technology Co., Ltd and used for xenograft tumor establishment. 22Rv1 tumor cells were subcutaneously inoculated on a side of a lower abdomen of each mouse, and each mouse was injected with 3×10^6 cells. […] When the tumor volumes reached about 100 mm^3, the mice were randomly divided into groups (n=6-7 per group) and then administered through oral gavage. […] The length (L) and width (W) of the tumor mass were measured by a caliper, and the volume was expressed in mm^3 and calculated according to the following formula: V=π/6×(L×W^2). TGI was calculated according to the following formula: TGI=[1−(T−T0)/(C−C0)]×100, where T denoted a mean tumor volume on a specific day of the experiment and T0 denoted a mean tumor volume at the beginning of the treatment; similarly, C and C0 denoted a mean tumor volume on a specific day of the experiment and a mean tumor volume of a blank group at the beginning of the treatment, respectively.
Data represented mean tumor volume standard deviation (n=6-7 per group) in each treatment group.

[8] = biological target: T3, LXRα (Homo sapiens, UniProt Q13133); test: Gal4-LBD luciferase selectivity test, LXRα
T3 sequence (Q13133 209-447 limits assumed): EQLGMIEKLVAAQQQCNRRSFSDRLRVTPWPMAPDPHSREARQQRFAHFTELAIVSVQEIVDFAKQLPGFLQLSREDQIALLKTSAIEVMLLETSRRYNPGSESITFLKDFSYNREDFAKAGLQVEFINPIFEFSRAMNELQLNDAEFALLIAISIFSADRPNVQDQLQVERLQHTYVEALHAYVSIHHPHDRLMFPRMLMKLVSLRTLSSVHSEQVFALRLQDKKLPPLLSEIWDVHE
Procedure: (§2) On the day before transfection, cells were prepared in the 96-well plate with a cell density of 1.5×10^4 cells/well. After 24 hours of adherent growth, transient transfection was performed with the transfection reagent Lipo-fectamine 2000 through a method of dual reporter gene co-transfection. The transfection reagent and the plasmids were separately diluted with the Opti-MEM Reagent. […] After 24 hours of incubation, the luciferase dual reporter gene detection assay kit was used for detecting luminescence signals. Three duplicate wells were set for each sample, and IC50 values (half maximal inhibitory concentrations) were calculated by software.

[9] = biological target: T4, FXR (Homo sapiens, UniProt Q96RI1); test: Gal4-LBD luciferase selectivity test, FXR
T4 sequence (Q96RI1 262-486 limits assumed): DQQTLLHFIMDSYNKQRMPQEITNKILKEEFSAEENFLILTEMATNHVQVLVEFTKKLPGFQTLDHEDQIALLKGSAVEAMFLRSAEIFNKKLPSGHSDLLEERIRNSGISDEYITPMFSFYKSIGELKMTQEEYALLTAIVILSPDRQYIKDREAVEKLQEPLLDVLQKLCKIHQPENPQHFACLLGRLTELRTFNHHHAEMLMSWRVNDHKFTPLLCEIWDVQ
Procedure: as §2

[10] = biological target: T5, RORα (Homo sapiens, UniProt P35398); test: Gal4-LBD luciferase selectivity test, RORα
T5 sequence (P35398 272-510 limits assumed): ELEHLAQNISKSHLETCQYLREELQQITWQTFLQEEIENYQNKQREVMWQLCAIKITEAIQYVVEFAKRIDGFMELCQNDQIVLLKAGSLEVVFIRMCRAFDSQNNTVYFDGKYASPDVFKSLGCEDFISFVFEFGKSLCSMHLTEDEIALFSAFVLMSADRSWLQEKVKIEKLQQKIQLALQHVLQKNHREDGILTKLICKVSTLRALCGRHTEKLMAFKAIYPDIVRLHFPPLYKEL
Procedure: as §2

[11] = biological target: T6, RORβ (Homo sapiens, UniProt Q92753); test: Gal4-LBD luciferase selectivity test, RORβ
T6 sequence (Q92753 222-460 limits assumed): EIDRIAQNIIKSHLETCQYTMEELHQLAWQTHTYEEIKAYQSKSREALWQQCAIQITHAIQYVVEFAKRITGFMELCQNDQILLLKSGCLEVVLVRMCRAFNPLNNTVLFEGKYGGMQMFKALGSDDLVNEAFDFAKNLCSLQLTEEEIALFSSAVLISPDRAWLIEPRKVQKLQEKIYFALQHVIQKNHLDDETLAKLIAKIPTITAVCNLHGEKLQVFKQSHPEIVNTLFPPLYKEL
Procedure: as §2

[12] = read-out: ΔTm (TSA detection technique), hRORγ 10 μM, compound 200 μM
[13] = IC50 (luciferase detection technique), RORγ transcriptional activity, Table 1

Cmax ([1]; iv (5 mg/kg)): 18400 ng/mL
SMILES: CCS(=O)(=O)c1ccc(CC(=O)Nc2ccc(-c3nc4ccc(C(F)(F)F)cc4n3[C@H](C)c3ccc(F)cc3)cc2)cc1 [Example 67, (R)-2-(4-(ethylsulfonyl)phenyl)-N-(4-(1-(1-(4-fluorophenyl)ethyl)-6-(trifluoromethyl)-1H-benzo[d]imidazol-2-yl)phenyl)acetamide]

IC50 ([2]; read-out: Cell Viability IC50 LNCaP, 72-96 h): 6.14 ± 0.04 µM
IC50 ([4]; read-out: Cell Viability IC50 22Rv1, 22Rv1, 72-96 h): 13.3 ± 1.22 µM
SMILES: OC(c1ccc(-c2ccc(CN3CCN(Cc4ccncc4)CC3)cc2)c(F)c1)(C(F)(F)F)C(F)(F)F [SR2211, reference compound]
IC50 ([3]; C4-2B, 72-96 h): 5.38 ± 0.27 µM

ΔTm at 200 µM [5, 12]: < 5 °C
IC50 [6, 13]: 1 to 10 µM
SMILES: CCS(=O)(=O)c1ccc(C(NC(C)=O)C(=O)Nc2ccc(-c3nc4cc(C(=O)NC(C)C)ccc4n3[C@H](C)c3ccc(C)cc3)nc2)cc1 (stereo partly drawn) [Example 83, 2-(5-(2-acetylamino-2-(4-(ethylsulfonyl)phenyl)acetylamino)pyridin-2-yl)-N-isopropyl-1-((R)-1-(p-tolyl)ethyl)-1H-benzo[d]imidazol-5-formamide]

ΔTm at 200 µM [5, 12]: 5 to 10 °C
IC50 [6, 13]: 1 to 10 µM
SMILES: CCS(=O)(=O)c1ccc(C(NC(C)=O)C(=O)Nc2ccc(-c3nc4cc(C(=O)NC(C)C)ccc4n3[C@H](C)c3ccc(C)cc3)cc2)cc1 (stereo partly drawn) [Example 78, 2-(4-(2-acetylamino-2-(4-(ethylsulfonyl)phenyl)acetylamino)phenyl)-N-isopropyl-1-((R)-1-(p-tolyl)ethyl)-1H-benzo[d]imidazol-5-formamide]

SMILES: CCS(=O)(=O)c1ccc(CC(=O)Nc2ccc(-c3nc4ccc(C(F)(F)F)cc4n3[C@@H](C)c3ccc(F)cc3)cc2)cc1 [Example 68, (S)-2-(4-(ethylsulfonyl)phenyl)-N-(4-(1-(1-(4-fluorophenyl)ethyl)-6-(trifluoromethyl)-1H-benzo[d]imidazol-2-yl)phenyl)acetamide]
TGI ([7]; 10 mg/kg oral): 83%
TGI ([7]; 40 mg/kg oral): 109%
toxic effect ([7]; 22Rv1 mouse xenograft models, all doses): without any apparent toxic effect
variations of weights of mice during administration ([7]; all doses (10 and 40 mg/kg oral)): no apparent variations in weight
Cmax ([1]; iv (5 mg/kg)): 14800 ng/mL
Cmax ([1]; po (25 mg/kg)): 5730 ng/mL

ΔTm at 200 µM [5, 12]: 5 to 10 °C
IC50 [6, 13]: 10 to 100 µM
SMILES: CCS(=O)(=O)c1ccc(CC(=O)Nc2ccc(-c3nc4ccc(OC)cc4s3)cc2)cc1 [Example 31, 2-(4-(ethylsulfonyl)phenyl)-N-(4-(6-methoxybenzo[d]thiazol-2-yl)phenyl) acetamide]

ΔTm at 200 µM [5, 12]: < 5 °C
IC50 [6, 13]: 0.1 to 1 µM
SMILES: CCS(=O)(=O)c1ccc(CC(=O)Nc2ccc(-c3nc4cc(C)c(C)cc4n3Cc3ccccc3)cc2)cc1 [Example 85, N-(4-(1-benzyl-5,6-dimethyl-1H-benzo[d]imidazol-2-yl)phenyl)-2-(4-(ethylsulfonyl)phenyl)acetamide]

IC50 [8]: > 20 µM
ΔTm at 200 µM [5, 12]: < 5 °C
IC50 ([2]; Homo sapiens, read-out: Cell Viability IC50 LNCaP): 5.2 ± 0.14 µM
IC50 [9]: > 20 µM
IC50 [6, 13]: < 0.1 µM
IC50 [10]: > 20 µM
IC50 [11]: > 20 µM
IC50 ([4]; Homo sapiens, 22Rv1, read-out: Cell Viability IC50 22Rv1): 10.4 ± 1.01 µM
SMILES: CCS(=O)(=O)c1ccc(C(NC(C)=O)C(=O)Nc2ccc(-c3nc4ccc(C)cc4n3[C@@H](C)c3ccc(C)cc3)cc2)cc1 (single isomer, unassigned) [Example 74]
IC50 [3]: 4.19 ± 0.34 µM

ΔTm at 200 µM ([5]; read-out: ΔTm (TSA detection technique)): > 10 °C
IC50 [6]: 10 to 100 µM
SMILES: CCN1C(=O)c2cccc3c(S(=O)(=O)Nc4ccc(-c5nc6ccc(C)cc6s5)cc4)ccc1c23 [Example 11, 1-ethyl-N-(4-(6-methylbenzo[d]thiazol-2-yl)phenyl)-2-oxo-1,2-dihydrobenzo[cd]indol-6-sulfonamide]

ΔTm at 200 µM [5, 12]: > 10 °C
IC50 [6, 13]: < 0.1 µM
SMILES: CCCCCCC(=O)Nc1ccc(-c2nc3ccc(C)cc3s2)cc1 [Example 26, N-(4-(6-methylbenzo[d]thiazol-2-yl)phenyl)heptanamide]

ΔTm at 200 µM [5, 12]: < 5 °C
IC50 [6, 13]: < 0.1 µM
SMILES: CCS(=O)(=O)c1ccc(CC(=O)Nc2ccc(-c3nc4ccc(Cl)cc4n3Cc3ccccc3)cc2)cc1 [Example 52]

ΔTm at 200 µM [5, 12]: 5 to 10 °C
IC50 [6, 13]: 0.1 to 1 µM
SMILES: CCS(=O)(=O)c1ccc(CC(=O)Nc2ccc(-c3nc4ccc(C)cc4s3)c(Cl)c2)cc1 [Example 29, N-(3-chloro-4-(6-methylbenzo[d]thiazol-2-yl)phenyl)-2-(4-(ethylsulfonyl)phenyl) acetamide]
